How the values were obtained:
Plasmodium falciparum [1] = test: Antimalarial activity against chloroquine-sensitive Plasmodium falciparum 3D7 infected in red blood cells after 72 hrs by SYBR green 1 staining based fluorometric assay; type: functional, cell-based; settings: 3D7, 72 h
Plasmodium falciparum [2] = test: Antimalarial activity against chloroquine-resistant Plasmodium falciparum W2 infected in red blood cells after 72 hrs by SYBR green 1 staining based fluorometric assay; type: functional, cell-based; settings: W2, 72 h
[3] = Resistance index, ratio of IC50 for chloroquine-resistant Plasmodium falciparum W2 infected in red blood cells to IC50 for chloroquine-sensitive Plasmodium falciparum 3D7 infected in red blood cells; type: functional
[4] = Cytotoxicity against HUVEC assessed as decrease in cell viability at 0.01 to 50 umol/l after 24 hrs by trypan blue dye based assay; type: toxicity; settings: human
[5] = Stability of the compound in pH 7.4 solution up to 48 hrs; type: physicochemical; settings: buffer, pH 7.4, 48 h

COC1=CC(=O)N(CCN(C)CCNc2ccnc3cc(Cl)ccc23)C1(O)Cc1ccc(C(F)(F)F)cc1 (stereo not given)
IC50 (Plasmodium falciparum [1]): 14 nM
IC50 (Plasmodium falciparum [2]): 34 nM
Ratio IC50 [3]: 2.4
Activity [4]: Non-Toxic
Stability [5]: Stable

CN(CCNc1ccnc2cc(Cl)ccc12)CCN1C(=O)C=C(OCc2ccccc2)C1(O)Cc1ccccc1 (stereo not given)
IC50 (Plasmodium falciparum [1]): 54 nM
IC50 (Plasmodium falciparum [2]): 64 nM
Ratio IC50 [3]: 1.2
Activity [4]: Non-Toxic
Stability [5]: Stable

O=C1C=C(OCc2ccccc2)C(O)(Cc2ccccc2)N1CCCNc1ccnc2cc(Cl)ccc12 (stereo not given)
IC50 (Plasmodium falciparum [1]): 143 nM
IC50 (Plasmodium falciparum [2]): 191 nM
Ratio IC50 [3]: 1.3

COC1=CC(=O)N(CCCNc2ccnc3cc(Cl)ccc23)C1(O)Cc1ccccc1 (stereo not given)
IC50 (Plasmodium falciparum [1]): 300 nM
IC50 (Plasmodium falciparum [2]): 827 nM
Ratio IC50 [3]: 2.8

COC1=CC(=O)N(CCN2CCN(CCNc3ccnc4cc(Cl)ccc34)CC2)C1(O)Cc1ccc(C(F)(F)F)cc1 (stereo not given)
IC50 (Plasmodium falciparum [1]): 19 nM
IC50 (Plasmodium falciparum [2]): 16 nM
Ratio IC50 [3]: 0.8
Activity [4]: Non-Toxic
Stability [5]: Stable

O=C1C=C(OCc2ccccc2)C(O)(Cc2ccc(C(F)(F)F)cc2)N1CCCNc1ccnc2cc(Cl)ccc12 (stereo not given)
IC50 (Plasmodium falciparum [1]): 36 nM
IC50 (Plasmodium falciparum [2]): 36 nM
Ratio IC50 [3]: 1
Activity [4]: Non-Toxic
Stability [5]: Stable

O=C1C=C(OCc2ccccc2)C(O)(Cc2ccc(F)cc2)N1CCCNc1ccnc2cc(Cl)ccc12 (stereo not given)
IC50 (Plasmodium falciparum [1]): 42 nM
IC50 (Plasmodium falciparum [2]): 58 nM
Ratio IC50 [3]: 1.4
Activity [4]: Non-Toxic
Stability [5]: Stable

COC1=CC(=O)N(CCCNc2ccnc3cc(Cl)ccc23)C1(O)Cc1ccc(C(C)(C)C)cc1 (stereo not given)
IC50 (Plasmodium falciparum [1]): 91 nM
IC50 (Plasmodium falciparum [2]): 214 nM
Ratio IC50 [3]: 2.3

COC1=CC(=O)N(CCCNc2ccnc3cc(Cl)ccc23)C1(O)Cc1ccc(F)cc1 (stereo not given)
IC50 (Plasmodium falciparum [1]): 191 nM
IC50 (Plasmodium falciparum [2]): 670 nM
Ratio IC50 [3]: 3.5

CN(CCNc1ccnc2cc(Cl)ccc12)CCN1C(=O)C=C(OCc2ccccc2)C1(O)Cc1ccc(C(F)(F)F)cc1 (stereo not given)
IC50 (Plasmodium falciparum [1]): 40 nM
IC50 (Plasmodium falciparum [2]): 42 nM
Ratio IC50 [3]: 1
Activity [4]: Non-Toxic
Stability [5]: Stable

COC1=CC(=O)N(CCCNc2ccnc3cc(Cl)ccc23)C1(O)Cc1ccc(OC)c(OC)c1 (stereo not given)
IC50 (Plasmodium falciparum [1]): 511 nM
IC50 (Plasmodium falciparum [2]): 760 nM
Ratio IC50 [3]: 1.5

From ChEMBL document CHEMBL3862008, “7-Chloro-4-aminoquinoline γ-hydroxy-γ-lactam derived-tetramates as a new family of antimalarial compounds” (Bioorg Med Chem Lett, 2016)
